Experimental data as given in patent US20250340593A1, “METHOD AND COMPOSITION FOR TREATING NEURODEGENERATIVE DISORDER” (priority 2022, published 2025).
Residues, ends and D or L forms follow the SMILES beside them.

Biological target: T1, soluble Aβ species (monomers, LMW and HMW Aβo) (Homo sapiens, UniProt P05067)
T1 construct: purchased Bachem; host or cells: chemical synthesis
Assay: Western blotting of soluble Aβ species (6E10 antibody)
Type: biochemical
Method: Aβ preparations (1 μg) were subjected to immunoblotting analysis and separated on 4-12% gradient SDS-PAGE gels, prior to being transferred on nitrocellulose membranes. After a 45 minutes blocking step in Tris-buffered saline, 0.1% Tween, pH 7.6, 5% milk, membranes were immunoblotted overnight at 4° C. with the 6E10 anti-Ab antibody diluted in Tris-buffered saline, 0.1% Tween, pH 7.6, with 2% milk. Horseradish peroxidase (HRP)-conjugated secondary anti-mouse antibody was next applied for 1 h30 at room temperature. Proteins were visualized with an ECL detection system and band intensities quantified using a densitometric analysis with Image J software.

[1] = Aβ aggregated with peptide for 24 hours, compared to the two other conditions

T1 sequence (P05067 672-713 limits assumed): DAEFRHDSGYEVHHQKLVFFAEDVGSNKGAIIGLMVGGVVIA

CC(C)[C@H](NC(=O)[C@H](Cc1ccc(O)cc1)NC(=O)[C@@H](NC(=O)[C@H](CO)NC(=O)[C@H](Cc1c[nH]c2ccccc12)NC(=O)[C@H](CO)NC(=O)[C@H](CCCCN)NC(=O)[C@H](Cc1ccc(O)cc1)NC(=O)[C@H](CCCNC(=N)N)NC(=O)[C@H](CO)NC(=O)[C@H](CCCCN)NC(=O)[C@H](CCCCN)NC(=O)[C@H](CCCNC(=N)N)NC(=O)[C@@H](N)CCCCN)C(C)C)C(=O)NCC(=O)O [BP, KRKKSRYKSWSVYVG] (H-KRKKSRYKSWSVYVG-OH; N-terminus and C-terminus assumed) was tested, and the “fraction of LMW Aβo” value (Aβ aggregated with peptide for 2 hours, compared to Aβ alone and Aβ and CP) was “significantly increased”, the “amount of HMW Aβo” value (Aβ aggregated with peptide for 2 hours, compared to the Aβ alone condition) was “significant decrease” and the “LMW Aβo and Aβ monomers” value [1] was “increase”. The “fraction of HMW Aβo” value [1] was “significant decrease”.
